The values that follow come from patent US7598255B2 (Janssen Pharmaceutica NV, priority 2005, dated 2009).

For orientation: Ki means a measure of affinity in units of concentration, obtained from inhibition or displacement.

In one experiment the target is rat 5-HT7a receptor (Rattus norvegicus, UniProt P32305). The experiment in a line: Affinity for 5-HT7 receptor binding sites, radioligand binding with [3H]5-CT. The conditions noted are these: membranes of HEK-293 cells with rat 5-HT7a, 1 nM [3H]5-CT. The essentials:
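Competition binding on membranes from HEK-293 cells stably expressing rat 5-HT7a, 135 μg protein/mL in 50 mM Tris-HCl pH 7.5, 5 mM EDTA. Incubated 60 min at RT with 1 nM [3H]5-CT and increasing compound concentrations; nonspecific binding with 10 μM 5-HT. Filtration and scintillation counting, in triplicate.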

The target of a further experiment is 5-HT2B receptor (Homo sapiens, UniProt P41595). The experiment in a line: Affinity for 5HT2 receptor binding sites, h5-HT2B, [3H]mesulergine. Particulars: CHO h5-HT2B membranes.
Sequence of 5-HT2B receptor (P41595 whole entry): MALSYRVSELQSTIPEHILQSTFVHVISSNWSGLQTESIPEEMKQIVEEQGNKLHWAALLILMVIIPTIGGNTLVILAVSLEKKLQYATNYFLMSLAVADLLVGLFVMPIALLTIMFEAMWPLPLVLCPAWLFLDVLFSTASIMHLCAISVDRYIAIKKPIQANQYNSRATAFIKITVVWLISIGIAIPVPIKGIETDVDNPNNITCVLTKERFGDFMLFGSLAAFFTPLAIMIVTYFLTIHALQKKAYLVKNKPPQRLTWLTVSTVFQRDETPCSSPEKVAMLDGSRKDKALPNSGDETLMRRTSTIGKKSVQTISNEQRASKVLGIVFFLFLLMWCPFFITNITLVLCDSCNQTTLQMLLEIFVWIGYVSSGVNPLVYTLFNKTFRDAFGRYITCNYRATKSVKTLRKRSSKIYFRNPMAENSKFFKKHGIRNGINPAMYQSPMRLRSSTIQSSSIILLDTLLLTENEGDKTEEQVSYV
Experiment [1] addresses T1, human recombinant 5-HT2C receptor (Homo sapiens, UniProt P28335).
T1 sequence (P28335 33-458): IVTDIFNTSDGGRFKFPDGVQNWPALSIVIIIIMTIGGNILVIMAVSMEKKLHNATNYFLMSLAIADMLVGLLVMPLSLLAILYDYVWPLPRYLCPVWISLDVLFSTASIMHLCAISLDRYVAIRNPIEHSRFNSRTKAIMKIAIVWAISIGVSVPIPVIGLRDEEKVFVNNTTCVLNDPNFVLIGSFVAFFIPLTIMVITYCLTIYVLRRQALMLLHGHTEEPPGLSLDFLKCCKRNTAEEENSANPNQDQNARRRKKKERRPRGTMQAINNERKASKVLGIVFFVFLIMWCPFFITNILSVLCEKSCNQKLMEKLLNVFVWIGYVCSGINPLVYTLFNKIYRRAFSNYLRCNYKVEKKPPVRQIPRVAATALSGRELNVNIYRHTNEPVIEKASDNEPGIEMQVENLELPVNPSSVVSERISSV
The experiment in a line: Affinity for 5HT2 receptor binding sites, h5-HT2C, [3H]mesulergine. Particulars: CHO h5-HT2C membranes.
Method: (§1) Sigmoidal inhibition curves were generated and fitted by nonlinear regression analysis (GraphPad Prism).
(§2) Receptor binding was performed using the human recombinant 5-HT2A (GB: X57830), 5-HT2B (GB: Z36748) and 5-HT2C (GB: M81778) receptors. The affinity of the compounds for the 3 different human 5-HT2 receptor subtypes was evaluated by competitive radioligand binding assays using [^3H]ketanserin (h5-HT2A) or [^3H]mesulergine (h5-HT2B and h5-HT2C). The assays were performed on membranes prepared from NIH3T3 stably transfected with h5-HT2A or CHO stably transfected with h5-HT2B and h5-HT2C.

The target of experiment [2] is human recombinant 5-HT6 receptor (Homo sapiens, UniProt P50406). The experiment in a line: Affinity for 5-HT6 receptor binding sites, [3H]LSD. The conditions noted are these: HEK-293 h5-HT6 membranes.
Sequence of human recombinant 5-HT6 receptor (P50406 whole entry): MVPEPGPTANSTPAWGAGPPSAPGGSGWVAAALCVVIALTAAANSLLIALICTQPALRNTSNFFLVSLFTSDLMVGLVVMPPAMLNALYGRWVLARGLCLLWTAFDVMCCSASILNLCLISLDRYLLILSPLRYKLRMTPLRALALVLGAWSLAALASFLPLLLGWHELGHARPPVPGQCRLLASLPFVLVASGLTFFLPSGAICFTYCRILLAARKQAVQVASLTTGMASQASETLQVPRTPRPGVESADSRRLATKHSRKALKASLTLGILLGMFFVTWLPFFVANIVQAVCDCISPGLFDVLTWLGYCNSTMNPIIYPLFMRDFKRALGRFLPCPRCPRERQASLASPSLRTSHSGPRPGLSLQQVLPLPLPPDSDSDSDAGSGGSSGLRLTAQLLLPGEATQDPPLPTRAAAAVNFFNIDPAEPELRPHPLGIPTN
The next experiment addresses 5-HT2A receptor (Homo sapiens, UniProt P28223). Put plainly: Affinity for 5-HT2A receptor binding sites, radioligand binding with [3H]ketanserin. Particulars: read-out: Ki 5-HT2A, rat cortex membranes (assay 2) or NIH3T3 h5-HT2A membranes (assay 3), table does not say which.

Where a name gives a salt, the structure may show the parent alone. Where only a bound is given, the exact number is not on record here.

Sequence of rat 5-HT7a receptor (P32305 whole entry): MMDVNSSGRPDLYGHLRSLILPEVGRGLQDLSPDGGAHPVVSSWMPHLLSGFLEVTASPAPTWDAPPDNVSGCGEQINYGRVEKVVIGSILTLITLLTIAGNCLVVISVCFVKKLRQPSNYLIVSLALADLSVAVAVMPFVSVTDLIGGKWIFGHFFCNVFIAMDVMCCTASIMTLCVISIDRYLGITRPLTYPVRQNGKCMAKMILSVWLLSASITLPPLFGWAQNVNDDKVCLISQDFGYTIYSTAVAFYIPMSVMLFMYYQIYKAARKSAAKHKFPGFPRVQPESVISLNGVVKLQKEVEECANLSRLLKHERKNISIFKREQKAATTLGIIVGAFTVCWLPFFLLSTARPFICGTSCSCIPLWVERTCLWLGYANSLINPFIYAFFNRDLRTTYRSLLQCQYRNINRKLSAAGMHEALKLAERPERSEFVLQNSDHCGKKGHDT
Method for 5-HT2A receptor: as §1
The affinity of the compounds for the rat 5-HT2A receptor was evaluated by competitive radioligand binding assay using [^3H]ketanserine as the radioligand. […] Brain tissue (rat cortex) was homogenized in 20 volumes per wet weight tissue of Tris-HCl buffer (50 mM, pH 7.4). The total membrane fraction was collected by centrifugation and washed by subsequent centrifugation runs (25 min at 25,000 g at 4° C.). Membranes were re-suspended in Tris-HCl buffer (50 mM, pH 7.4) containing 1 nM [^3H]ketanserin. Non-specific binding was estimated in the presence of 10 μM risperidone. The incubation was terminated by rapid filtration over Whatman GF/B filters pre-soaked in 0.1% polyethylenimine, and one washing step with 1 mL ice-cold Tris-HCl buffer, pH 7.4.
Method for 5-HT2B receptor: as §1, §2

As for `CC(C)c1nc2c(c(-c3ccc(F)cc3)n1)CCC(N1CCCC1)C2` (stereo not shown) [Example 107, 4-(4-Fluoro-phenyl)-2-isopropyl-7-pyrrolidin-1-yl-5,6,7,8-tetrahydro-quinazoline], the Ki was more than 10000 nM at rat 5-HT7a receptor; 275 nM on 5-HT2B receptor; 500 nM in experiment [1]; 4000 nM in experiment [2]; 12 nM at 5-HT2A receptor.
For `N#Cc1ccc(-c2nc(C3CCCC3)nc3c2CCNCC3)cc1` [Example 49, 4-(2-Cyclopentyl-6,7,8,9-tetrahydro-5H-pyrimido[4,5-d]azepin-4-yl)-benzonitrile] the same measures were 300 nM, 25 nM, 400 nM, 200 nM and 50 nM.
Turning to `Fc1ccc(-c2nc(Cc3ccccc3)nc3c2CCN(Cc2ccccc2)C3)cc1` [Example 70, 2,7-Dibenzyl-4-(4-fluoro-phenyl)-5,6,7,8-tetrahydro-pyrido[3,4-d]pyrimidine hydrochloride], the Ki at rat 5-HT7a receptor was more than 10000 nM; at 5-HT2B receptor, more than 10000 nM; in experiment [1], 3730 nM; in experiment [2], 250 nM; at 5-HT2A receptor it was 117 nM.
For `Cc1ccc(-c2nc(Cc3ccccc3)nc3c2CCNCC3)cc1` [Example 55, 2-Benzyl-4-p-tolyl-6,7,8,9-tetrahydro-5H-pyrimido[4,5-d]azepine], the Ki on rat 5-HT7a receptor worked out at 35 nM; on 5-HT2B receptor, 2.5 nM; in experiment [1] it was 16 nM; in experiment [2] it was 8.5 nM; on 5-HT2A receptor it was 0.42 nM.
The corresponding values for `Cc1ccc(-c2nc(C3CCCC3)nc3c2CCN(C)CC3)cc1` [Example 59, 2-Cyclopentyl-7-methyl-4-p-tolyl-6,7,8,9-tetrahydro-5H-pyrimido[4,5-d]azepine] are 100 nM, 7.8 nM, 29 nM, 20 nM and 1.5 nM.
Consider `Cc1ccc(-c2nc(C3CCCC3)nc3c2CCNCC3)cc1` [Example 47, 2-Cyclopentyl-4-p-tolyl-6,7,8,9-tetrahydro-5H-pyrimido[4,5-d]azepine], for which the Ki on rat 5-HT7a receptor was determined as 30 nM; at 5-HT2B receptor, 1 nM; in experiment [1], 22 nM; in experiment [2], 12 nM.
For the compound `COc1ccc(-c2nc(C3CCCC3)nc3c2CCN(C)CC3)cc1` [Example 60, 2-Cyclopentyl-4-(4-methoxy-phenyl)-7-methyl-6,7,8,9-tetrahydro-5H-pyrimido[4,5-d]azepine], the Ki at rat 5-HT7a receptor turned out to be 400 nM; at 5-HT2B receptor, 10 nM; in experiment [1], 60 nM; in experiment [2], 60 nM; on 5-HT2A receptor, 6 nM.
Regarding `Cc1ccc(-c2nc(C(C)C)nc3c2CNCC3C)cc1` (stereo not shown) [Example 102, 2-Isopropyl-8-methyl-4-p-tolyl-5,6,7,8-tetrahydro-pyrido[4,3-d]pyrimidine hydrochloride], the Ki on rat 5-HT7a receptor is more than 10000 nM; on 5-HT2B receptor, 150 nM; in experiment [1], 230 nM; in experiment [2] it was 370 nM; on 5-HT2A receptor, 20 nM.
The corresponding values for `Cc1ccc(-c2nc(Cc3ccccc3)nc3c2CCN(Cc2ccccc2)C3)cc1` [Example 71, 2,7-Dibenzyl-4-p-tolyl-5,6,7,8-tetrahydro-pyrido[3,4-d]pyrimidine] are more than 10000 nM, 4330 nM, 3580 nM, 300 nM and 1030 nM.
For `CC(C)c1nc2c(c(-c3ccc(F)cc3)n1)CCNC2` [Example 80, 4-(4-Fluoro-phenyl)-2-isopropyl-5,6,7,8-tetrahydro-pyrido[3,4-d]pyrimidine hydrochloride] the same measures were more than 10000 nM, 158 nM, 940 nM, 2800 nM and 11 nM.
`FC(F)(F)c1ccc(-c2nc(Cc3ccccc3)nc3c2CCNCC3)cc1` [Example 56, 2-Benzyl-4-(4-trifluoromethyl-phenyl)-6,7,8,9-tetrahydro-5H-pyrimido[4,5-d]azepine]: the inhibition constant (Ki) on rat 5-HT7a receptor came to 180 nM; at 5-HT2B receptor, 22 nM; in experiment [1] it was 38 nM; in experiment [2] it was 30 nM; on 5-HT2A receptor, 0.8 nM.
For `COc1ccc(-c2nc(C3CCCC3)nc3c2CCNCC3)cc1` [Example 48, 2-Cyclopentyl-4-(4-methoxy-phenyl)-6,7,8,9-tetrahydro-5H-pyrimido[4,5-d]azepine] the same measures were 40 nM, 3 nM, 100 nM, 24 nM and 20 nM.
In the case of `Fc1ccc(-c2nc(Cc3ccccc3)nc3c2CNCCC3)cc1` [Example 69, 2-Benzyl-4-(4-fluoro-phenyl)-6,7,8,9-tetrahydro-5H-1,3,6-triaza-benzocycloheptene hydrochloride], the Ki on rat 5-HT7a receptor is more than 10000 nM; at 5-HT2B receptor, more than 10000 nM; in experiment [1], 650 nM; in experiment [2], 7100 nM.
Take `CCC(C)c1nc2c(c(-c3ccc(F)cc3)n1)CNCC2` (stereo not shown) [Example 3, 2-sec-Butyl-4-(4-fluoro-phenyl)-5,6,7,8-tetrahydro-pyrido[4,3-d]pyrimidine hydrochloride]: the Ki is more than 10000 nM on rat 5-HT7a receptor, 2250 nM on 5-HT2B receptor, 1020 nM in experiment [1] and more than 10000 nM in experiment [2].
Turning to `Cc1nc2c(c(-c3cccc(Cl)c3)n1)CCNCC2` [Example 53, 4-(3-Chloro-phenyl)-2-methyl-6,7,8,9-tetrahydro-5H-pyrimido[4,5-d]azepine], the Ki is more than 10000 nM at rat 5-HT7a receptor, more than 10000 nM on 5-HT2B receptor, more than 10000 nM in experiment [1] and 1000 nM on 5-HT2A receptor.
For `FC(F)(F)c1ccc(-c2nc(Cc3ccccc3)nc3c2CNCC3)cc1` [Example 9, 2-Benzyl-4-(4-trifluoromethyl-phenyl)-5,6,7,8-tetrahydro-pyrido[4,3-d]pyrimidine], the Ki at rat 5-HT7a receptor is 5000 nM; on 5-HT2B receptor, more than 10000 nM; in experiment [1], 7500 nM; at 5-HT2A receptor it was 1350 nM.
For `Fc1ccc(-c2nc(Cc3ccccc3)nc3c2CNCC3)cc1` [Example 2, 2-Benzyl-4-(4-fluoro-phenyl)-5,6,7,8-tetrahydro-pyrido[4,3-d]pyrimidine] the same measures were more than 10000 nM, 5000 nM, 510 nM and 20 nM.
For `CC(C)c1nc2c(c(-c3cccc(F)c3)n1)CNCC2` [Example 25, 4-(3-Fluoro-phenyl)-2-isopropyl-5,6,7,8-tetrahydro-pyrido[4,3-d]pyrimidine] the same measures were more than 10000 nM, more than 10000 nM, more than 10000 nM and 300 nM.
The corresponding values for `CC(C)c1nc2c(c(-c3ccc(F)c(F)c3)n1)CNCC2` [Example 24, 4-(3,4-Difluoro-phenyl)-2-isopropyl-5,6,7,8-tetrahydro-pyrido[4,3-d]pyrimidine hydrochloride] are more than 10000 nM, more than 10000 nM, more than 10000 nM and 240 nM.
As for `CC(C)c1nc(-c2ccsc2)c2c(n1)C(C)CN(Cc1ccccc1)C2` (stereo not shown) [Example 98, 6-Benzyl-2-isopropyl-8-methyl-4-thiophen-3-yl-5,6,7,8-tetrahydro-pyrido[4,3-d]pyrimidine], the Ki (on rat 5-HT7a receptor; on 5-HT2B receptor; in experiment [1]; at 5-HT2A receptor) was more than 10000 nM each time.
Consider `Cc1cc(-c2nc(C(C)C)nc3c2CCNC3)cs1` [Example 88, 2-Isopropyl-4-(5-methyl-thiophen-3-yl)-5,6,7,8-tetrahydro-pyrido[3,4-d]pyrimidine hydrochloride], for which the Ki at rat 5-HT7a receptor is 550 nM; at 5-HT2B receptor, 60 nM; in experiment [1], 185 nM; at 5-HT2A receptor, 13 nM.
`CC(C)c1nc2c(c(-c3ccc(Cl)c(Cl)c3)n1)CNCC2` [Example 23, 4-(3,4-Dichloro-phenyl)-2-isopropyl-5,6,7,8-tetrahydro-pyrido[4,3-d]pyrimidine hydrochloride]: the Ki on rat 5-HT7a receptor was more than 10000 nM; on 5-HT2B receptor, more than 10000 nM; in experiment [1], more than 10000 nM; on 5-HT2A receptor it was 500 nM.
With `CCC(C)c1nc2c(c(-c3ccc(OC)cc3)n1)CNCC2` (stereo not shown) [Example 44, 2-sec-Butyl-4-(4-methoxy-phenyl)-5,6,7,8-tetrahydro-pyrido[4,3-d]pyrimidine], the Ki is more than 10000 nM on rat 5-HT7a receptor, 500 nM at 5-HT2B receptor, 1000 nM in experiment [1] and 400 nM at 5-HT2A receptor.
